Results on four molecules are retold here after US8058269B2, “Oxindole derivatives” (Hoffman-La Roche Inc., priority 2006, dated 2011).

Structures are written as SMILES.

interaction between p53 and MDM2 proteins, sequence (Q00987 whole entry): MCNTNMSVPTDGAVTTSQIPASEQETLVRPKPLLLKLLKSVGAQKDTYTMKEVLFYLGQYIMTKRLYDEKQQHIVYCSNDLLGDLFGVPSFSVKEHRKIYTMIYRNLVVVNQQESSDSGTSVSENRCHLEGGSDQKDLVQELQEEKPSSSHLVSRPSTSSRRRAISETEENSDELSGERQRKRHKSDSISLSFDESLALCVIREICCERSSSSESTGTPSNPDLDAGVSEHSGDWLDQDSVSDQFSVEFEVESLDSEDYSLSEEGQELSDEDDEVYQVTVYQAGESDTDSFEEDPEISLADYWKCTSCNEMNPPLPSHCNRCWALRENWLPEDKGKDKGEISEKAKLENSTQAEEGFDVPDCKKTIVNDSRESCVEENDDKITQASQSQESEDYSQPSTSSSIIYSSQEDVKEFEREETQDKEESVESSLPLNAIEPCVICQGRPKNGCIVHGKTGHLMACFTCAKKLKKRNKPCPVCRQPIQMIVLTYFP

This test has as its target interaction between p53 and MDM2 proteins (Homo sapiens, UniProt Q00987). The experiment in a line: HTRF assay of inhibition of the p53-MDM2 interaction (GST-MDM2 / biotinylated p53 peptide). Type of test: binding. The conditions noted are these: recombinant GST-tagged MDM2 and biotinylated p53 peptide, 0.02% BSA. The procedure: In a […], the ability of the compounds to inhibit the interaction between p53 and MDM2 proteins was measured. The ability of the compounds to inhibit the interaction between p53 and MDM2 proteins was measured by an HTRF (homogeneous time-resolved fluorescence) assay in which recombinant GST-tagged MDM2 binds to a peptide that resembles the MDM2-interacting region of p53 (Lane et al.). Binding of GST-MDM2 protein and p53-peptide (biotinylated on its N-terminal end) is registered by the FRET (fluorescence resonance energy transfer) between Europium (Eu)-labeled anti-GST antibody and streptavidin-conjugated Allophycocyanin (APC). […]
On the technique in general: Time-resolved FRET reads energy transfer from a long-lived donor to a nearby acceptor.
Take `O=C1Nc2cc(Cl)ccc2C1(Cc1cccc(Cl)c1)Nc1ccc(Br)cc1F` (racemic) [Example 11, rac-3-(4-bromo-2-fluoro-phenylamino)-6-chloro-3-(3-chloro-benzyl)-1,3-dihydro-indol-2-one]: the half-inhibitory concentration (IC50) (in general, the concentration that gives 50% inhibition) was 3.73 nM. On to `O=C1Nc2cc(Cl)ccc2C1(Cc1cccc(Cl)c1)Nc1cccc(OC(F)F)c1` (racemic) [Example 19, rac-6-chloro-3-(3-chloro-benzyl)-3-(3-difluoromethoxy-phenylamino)-1,3-dihydro-indol-2-one], for which the IC50 came to 2.56 nM. Take `O=C1Nc2cc(Cl)ccc2C1(Cc1cccc(Cl)c1)NC1CCC1` (racemic) [Example 49, rac-6-chloro-3-(3-chloro-benzyl)-3-cyclobutylamino-1,3-dihydro-indol-2-one]: the IC50 was found to be 2.54 nM. The value for `O=C1Nc2cc(Cl)ccc2C1(Cc1cccc(Cl)c1)N1CCCC(O)C1` (racemic) [Example 62, rac-6-chloro-3-(3-chloro-benzyl)-3-(3-hydroxy-piperidin-1-yl)-1,3-dihydro-indol-2-one] was 3.68 nM.
